The experiment can be described thus: loss of righting test (muscle relaxant activity). Format: in vivo.

Turning to `Nc1cccc(-c2ccccc2)c1CC(=O)O` [Example 6-phenyl], the “Percent loss of Righting reflex” value (Dose 50 mg/kg) was 0% and the “Percent loss of Righting reflex” value (Dose 100 mg/kg) was determined as 100%.

For the origin of these results see patent EP0089426A1, “2-Amino-6-biphenylacetic acids” (A.H. ROBINS COMPANY, INCORPORATED, priority 1982, dated 1983).
